Measurements as given in patent publication US9113629B2, “4-amino-6-(4-substituted-phenyl)-picolinates and 6-amino-2-(4-substituted-phenyl)-pyrimidine-4-carboxylates and their use as herbicides” (DOW AGROSCIENCES LLC, priority 2013, dated 2015).
Where two headings read alike, the source gives them in different places.

Key:
[1] = test system: Key Broadleaf Weed and Crop Species; assay: Post-emergent Test II herbicidal activity (Table 5); format: in vivo; details: post-emergence, 336 h, 14 days after application; for pest or weed control at 70 g/ha: application rate 70 g ai/ha; for pest or weed control at 140 g/ha: application rate 140 g ai/ha
How it was run: (§1)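 Injury was rated visually 14 d after treatment on a 0–100% scale against untreated controls. Test compounds, formulated with crop oil concentrate and surfactant and serially diluted down to 1/16× of the top rate, were applied by track sprayer at 187 L/ha onto first- to second-true-leaf seedlings.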

[2] = test system: Key Grass and Sedge Weeds as well as Grass Crops; assay: Post-emergent Test II herbicidal activity (Table 6); format: in vivo; details: post-emergence, 336 h; for pest or weed control at 70 g/ha: 70 g ai/ha; for pest or weed control at 140 g/ha: 140 g ai/ha
How it was run: as §1

[3] = ABUTH: velvetleaf (Abutilon theophrasti), read-out: Visual Growth Reduction (%) 14 Days After Application, ABUTH
[4] = AMARE: redroot pigweed (Amaranthus retroflexus), read-out: Visual Growth Reduction (%) 14 Days After Application, AMARE
[5] = BRSNN: oilseed-rape, canola (Brassica napus), read-out: Visual Growth Reduction (%) 14 Days After Application, BRSNN
[6] = CHEAL: lambsquarters (Chenopodium album), read-out: Visual Growth Reduction (%) 14 Days After Application, CHEAL
[7] = EPHHL: wild poinsettia (Euphorbia heterophylla), read-out: Visual Growth Reduction (%) 14 Days After Application, EPHHL
[8] = HELAN: sunflower (Helianthus annuus), read-out: Visual Growth Reduction (%) 14 Days After Application, HELAN
[9] = VIOTR: wild pansy (Viola tricolor), read-out: Visual Growth Reduction (%) 14 Days After Application, VIOTR
[10] = CYPES: yellow nutsedge (Cyperus esculentus), read-out: Visual Growth Reduction (%) 14 Days After Application, CYPES
[11] = DIGSA: crabgrass (Digitaria sanguinalis), read-out: Visual Growth Reduction (%) 14 Days After Application, DIGSA
[12] = ECHCG: barnyardgrass (Echinochloa crus-galli), read-out: Visual Growth Reduction (%) 14 Days After Application, ECHCG
[13] = ORYSA: rice (Oryza sativa), crop, read-out: Visual Growth Reduction (%) 14 Days After Application, ORYSA
[14] = SETFA: giant foxtail (Setaria faberi), read-out: Visual Growth Reduction (%) 14 Days After Application, SETFA
[15] = SORVU: grain sorghum (Sorghum vulgare), read-out: Visual Growth Reduction (%) 14 Days After Application, SORVU
[16] = TRZSS (wheat, Triticum aestivum), crop, read-out: Visual Growth Reduction (%) 14 Days After Application, TRZSS
[17] = ZEAMX: maize, corn (Zea mays), crop, read-out: Visual Growth Reduction (%) 14 Days After Application, ZEAMX

COC(=O)c1nc(-c2ccc(Br)c(F)c2F)cc(N)c1Cl [Compound 114, methyl 4-amino-6-(4-bromo-2,3-difluorophenyl)-3-chloropicolinate]
pest or weed control at 70 g/ha [1, 3]: 95 to 100% | pest or weed control at 140 g/ha [1, 3]: 95 to 100% | pest or weed control at 70 g/ha [1, 4]: 95 to 100% | pest or weed control at 140 g/ha [1, 4]: 95 to 100% | pest or weed control at 70 g/ha [1, 5]: 85 to 94% | pest or weed control at 140 g/ha [1, 5]: 95 to 100% | pest or weed control at 70 g/ha [1, 6]: 95 to 100% | pest or weed control at 140 g/ha [1, 6]: 95 to 100% | pest or weed control at 70 g/ha [1, 7]: 95 to 100% | pest or weed control at 140 g/ha [1, 7]: 95 to 100% | pest or weed control at 70 g/ha [1, 8]: 95 to 100% | pest or weed control at 140 g/ha [1, 8]: 95 to 100% | pest or weed control at 70 g/ha [1, 9]: 95 to 100% | pest or weed control at 140 g/ha [1, 9]: 95 to 100% | pest or weed control at 70 g/ha [2, 10]: 95 to 100% | pest or weed control at 140 g/ha [2, 10]: 95 to 100% | pest or weed control at 70 g/ha [2, 11]: 60 to 74% | pest or weed control at 140 g/ha [2, 11]: 60 to 74% | pest or weed control at 70 g/ha [2, 12]: 95 to 100% | pest or weed control at 140 g/ha [2, 12]: 95 to 100% | pest or weed control at 70 g/ha [2, 13]: 0 to 29% | pest or weed control at 140 g/ha [2, 13]: 0 to 29% | pest or weed control at 70 g/ha [2, 14]: 60 to 74% | pest or weed control at 140 g/ha [2, 14]: 75 to 84% | pest or weed control at 70 g/ha [2, 15]: 95 to 100% | pest or weed control at 140 g/ha [2, 15]: 95 to 100% | pest or weed control at 70 g/ha [2, 16]: 30 to 44% | pest or weed control at 140 g/ha [2, 16]: 45 to 59% | pest or weed control at 70 g/ha [2, 17]: 85 to 94% | pest or weed control at 140 g/ha [2, 17]: 85 to 94%
